From patent US9732075B2, “Benzimidazole-proline derivatives” (IDORSIA PHARMACEUTICALS LTD, priority 2012, dated 2017)

Columns and labels:
[1] = target: human orexin-2 receptor (Homo sapiens (Human), UniProt O43614); assay: In vitro assay: intracellular calcium measurements (FLIPR), antagonistic activity; type: cell-based; conditions: CHO cells expressing human orexin-2 receptor, orexin-A agonist, geometric mean, read-out: IC50 Ox2
Method: (§1) In Vitro Assay: Intracellular Calcium Measurements:
(§2) Chinese hamster ovary (CHO) cells expressing the human orexin-1 receptor and the human orexin-2 receptor, respectively, are grown in culture medium (Ham F-12 with L-Glutamine) containing 300 μg/ml G418, 100 U/ml penicillin, 100 μg/ml streptomycin and 10% heat inactivated fetal calf serum (FCS). The cells are seeded at 20,000 cells/well into 384-well black clear bottom sterile plates (Greiner). The seeded plates are incubated overnight at 37° C. in 5% CO2.
(§3) Human orexin-A as an agonist is prepared as 1 mM stock solution in MeOH: water (1:1), diluted in HBSS containing 0.1% bovine serum albumin (BSA), NaHCO3: 0.375 g/l and 20 mM HEPES for use in the assay at a final concentration of 3 nM.
(§4) Antagonists are prepared as 10 mM stock solution in DMSO, then diluted in 384-well plates using DMSO followed by a transfer of the dilutions into in HBSS containing 0.1% bovine serum albumin (BSA), NaHCO3: 0.375 g/l and 20 mM HEPES. On the day of the assay, 50 μl of staining buffer (HBSS containing 1% FCS, 20 mM HEPES, NaHCO3: 0.375 g/l, 5 mM probenecid (Sigma) and […] of the fluorescent calcium indicator fluo-4 AM (1 mM stock solution in DMSO, containing 10% pluronic) is added to each well. The 384-well cell-plates are incubated for 50 min at 37° C. in 5% CO2 followed by equilibration at RT for 30 min before measurement.
(§5) Within the Fluorescent Imaging Plate Reader (FLIPR Tetra, Molecular Devices), antagonists are added to the plate in a volume of 10 μl/well, incubated for 120 min and finally 10 μl/well of agonist is added. Fluorescence is measured for each well at 1 second intervals, and the height of each fluorescence peak is compared to the height of the fluorescence peak induced by an approximate EC70 (for example 5 nM) of orexin-A with vehicle in place of antagonist. The IC50 value (the concentration of compound needed to inhibit 50% of the agonistic response) is determined and may be normalized using the obtained IC50 value of a on-plate reference compound. Optimized conditions are achieved by adjustment of pipetting speed and cell splitting regime. The calculated IC50 values may fluctuate depending on the daily cellular assay performance. Fluctuations of this kind are known to those skilled in the art. Average IC50 values from several measurements are given as geometric mean values.

[2] = target: human orexin-1 receptor (Homo sapiens (Human), UniProt O43613); assay: as above; type: cell-based; conditions: CHO cells expressing human orexin-1 receptor, orexin-A agonist, geometric mean, read-out: IC50 Ox1
Sequence of human orexin-1 receptor (O43613 whole entry): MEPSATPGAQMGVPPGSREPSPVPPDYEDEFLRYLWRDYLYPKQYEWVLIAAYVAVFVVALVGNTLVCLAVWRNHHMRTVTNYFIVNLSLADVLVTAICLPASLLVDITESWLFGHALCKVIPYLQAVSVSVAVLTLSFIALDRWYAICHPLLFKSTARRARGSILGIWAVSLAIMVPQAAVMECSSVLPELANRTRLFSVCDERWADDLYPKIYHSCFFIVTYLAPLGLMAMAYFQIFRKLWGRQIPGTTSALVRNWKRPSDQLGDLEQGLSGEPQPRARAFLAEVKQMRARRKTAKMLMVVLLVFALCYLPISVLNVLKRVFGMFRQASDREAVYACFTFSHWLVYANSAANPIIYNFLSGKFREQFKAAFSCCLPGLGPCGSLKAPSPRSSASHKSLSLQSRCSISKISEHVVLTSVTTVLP
Method: as §1, §2, §3, §4, §5

Sequence of human orexin-2 receptor (O43614 whole entry): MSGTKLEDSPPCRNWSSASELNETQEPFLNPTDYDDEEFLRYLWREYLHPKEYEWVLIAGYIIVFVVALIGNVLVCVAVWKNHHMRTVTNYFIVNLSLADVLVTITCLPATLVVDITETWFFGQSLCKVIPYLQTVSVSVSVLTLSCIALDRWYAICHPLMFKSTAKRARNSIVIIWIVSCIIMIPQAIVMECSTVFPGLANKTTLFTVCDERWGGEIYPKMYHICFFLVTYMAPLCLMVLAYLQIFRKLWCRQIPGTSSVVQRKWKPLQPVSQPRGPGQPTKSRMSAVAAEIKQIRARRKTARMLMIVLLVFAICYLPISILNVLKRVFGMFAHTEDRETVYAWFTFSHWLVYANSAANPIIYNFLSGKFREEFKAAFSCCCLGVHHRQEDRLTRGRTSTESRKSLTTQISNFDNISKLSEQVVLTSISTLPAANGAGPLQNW

Row | Compound | IC50 [1] [nM] | IC50 [2] [nM]
1 | Cc1nc(C(=O)N2CCCC2c2nc3c(Br)cccc3[nH]2)c(-c2ccccc2)s1 (stereo not shown) [Ex. 1.130] | 75 | 113
2 | COc1ccc(-c2ccc(C)cc2C(=O)N2CCC[C@@]2(C)c2nc3cc(C(F)(F)F)ccc3[nH]2)cc1 [Ex. 5.191] | 69 | 18
3 | Cc1ccc(-c2ccc(F)cc2)c(C(=O)N2CCC[C@@]2(C)c2nc3cc(C(F)(F)F)ccc3[nH]2)c1 [Ex. 5.197] | 166 | 18
4 | COc1cc2nc([C@@H]3[C@@H](C)CCN3C(=O)c3c(-n4nccn4)ccc(C)c3F)[nH]c2cc1OC [Ex. 4.44] | 246 | 38
5 | COc1cc2nc([C@@H]3[C@@H](C)CCN3C(=O)c3ncsc3-c3cccc(Cl)c3)[nH]c2cc1OC [Ex. 4.55] | 7970 | 167
6 | Cc1ccc(-n2nccn2)c(C(=O)N2CC(F)(F)C[C@H]2c2nc3c(C)c(Cl)ccc3[nH]2)c1 [Ex. 2.6] | 59 | 52
7 | Cc1ccc(-c2ccccc2C)c(C(=O)N2CCC[C@@]2(C)c2nc3cc(C)c(C)cc3[nH]2)c1 [Ex. 5.98] | 264 | 120
8 | Cc1cc2[nH]c([C@@H]3[C@@H](C)CCN3C(=O)c3c(-c4cccnc4)ccc(C)c3F)nc2cc1Cl [Ex. 4.117] | 2570 | 16
9 | Cc1nc(C(=O)N2CCCC2c2nc3c(Br)cc(F)cc3[nH]2)c(-c2cccc(Cl)c2)s1 (stereo not shown) [Ex. 1.114] | 74 | 30
10 | Cc1cc(C(=O)N2CCC[C@@]2(C)c2nc3c(C)c(Cl)ccc3[nH]2)c(-n2nccn2)cn1 [Ex. 5.263] | 304 | 56
11 | Cc1cccc(-c2ccc(C)cc2C(=O)N2CCC[C@@]2(C)c2nc3cc(C)c(C)cc3n2CC2CC2)c1 [Ex. 7.26] | 54 | 42
12 | COc1ccc2nc([C@@H]3CCCN3C(=O)c3nc(C)sc3-c3cccc(Cl)c3)[nH]c2c1 [Ex. 1.25] | 90 | 364
13 | Cc1ccc(-n2nccn2)c(C(=O)N2CCC[C@@]2(C)c2nc3c(Cl)cccc3[nH]2)c1 [Ex. 5.26] | 197 | 39
14 | Cc1nc(C(=O)N2CC[C@H](C)[C@H]2c2nc3cc(C(F)(F)F)ccc3[nH]2)c(-c2ccc(F)cc2)s1 [Ex. 4.136] | 4360 | 14
15 | Cc1ccc(-c2ncccn2)c(C(=O)N2CCC[C@@]2(C)c2nc3cc(F)c(Br)cc3[nH]2)c1 [Ex. 5.282] | 97 | 47
16 | COc1ccc(-n2nccn2)c(C(=O)N2CCC[C@@]2(C)c2nc3cc(C(F)(F)F)ccc3[nH]2)c1F [Ex. 5.168] | 570 | 64

Row | Compound | IC50 [1] [nM] | IC50 [2] [nM]
17 | Cc1cccc(-c2nc(C(=O)N3CCC[C@@]3(C)c3nc4cc(Cl)c(C(F)(F)F)cc4[nH]3)c(-c3ccc(F)cc3)s2)c1 [Ex. 5.287] | 1160 | 53
18 | Cc1ccc(-c2nc(C)sc2C(=O)N2CC[C@H](C)[C@H]2c2nc3cc(Cl)c(C)cc3[nH]2)cc1 [Ex. 4.79] | 541 | 18
19 | Cc1c(Cl)ccc2[nH]c([C@@H]3[C@@H](C)CCN3C(=O)c3cc(F)ccc3-c3ccccc3)nc12 [Ex. 4.164] | 725 | 7
20 | Cc1nc(C(=O)N2CCCC2c2nc3cc(C(F)(F)F)c(F)cc3[nH]2)c(-c2ccccc2)s1 (stereo not shown) [Ex. 1.135] | 194 | 32
21 | CSc1cccc2[nH]c([C@@H]3CCCN3C(=O)c3nc(C)ccc3-n3nccn3)nc12 [Ex. 1.175] | 76 | 528
22 | Cc1nc(C(=O)N2CCCC2c2nc3cc(Br)cc(C)c3[nH]2)c(-c2cccc(Cl)c2)s1 (stereo not shown) [Ex. 1.107] | 58 | 28
23 | Cc1ccc(-n2nccn2)c(C(=O)N2CC[C@H](C)[C@H]2c2nc3c(C(F)(F)F)cccc3[nH]2)c1 [Ex. 4.34] | 1880 | 37
24 | (S)-(2-(6-methoxy-1H-benzo[d]imidazol-2-yl)pyrrolidin-1-yl)(5-methyl-2-(2H-1,2,3-triazol-2-yl)phenyl)methanone [Example 1.1] | 108 | 1500
25 | Cc1nc(C(=O)N2CC[C@H](C)[C@H]2c2nc3c(C)cc(Cl)cc3[nH]2)c(-c2cc(F)cc(F)c2)s1 [Ex. 4.98] | 1300 | 4
26 | Cc1nc(C(=O)N2CC[C@H](C)[C@H]2c2nc3cc(F)ccc3[nH]2)c(-c2cccc(Cl)c2)s1 [Ex. 4.20] | 2450 | 28
27 | Cc1ccc2[nH]c([C@]3(C)CCCN3C(=O)c3ccccc3-c3ccc(F)cc3)nc2c1C [Ex. 5.122] | 74 | 99
28 | C[C@@]1(c2nc3cc(C(F)(F)F)ccc3[nH]2)CCCN1C(=O)c1cc(OC(F)(F)F)ccc1-n1nccn1 [Ex. 5.173] | 1140 | 290
29 | Cc1cc(C(=O)N2CCC[C@@]2(C)c2nc3c(C)cc(Br)cc3[nH]2)c(-c2ccccc2)cn1 [Ex. 5.310] | 70 | 32
30 | CSc1ccc2nc([C@@H]3CCCN3C(=O)c3nc(C)sc3-c3cccc(F)c3)[nH]c2c1 [Ex. 1.39] | 73 | 157
31 | Cc1nc(C(=O)N2CCCC2c2nc3cc(C(C)(C)C)ccc3[nH]2)c(-c2cccc(Cl)c2)s1 (stereo not shown) [Ex. 1.99] | 50 | 58

These reach a lower IC50 [1]. Values come first.

Row | IC50 [1] [nM] | IC50 [2] [nM] | Compound
32 | 44 | 46 | C=C1CN(C(=O)c2ccccc2-c2ccc(F)c(C)c2)C(C)(c2nc3cc(OC)ccc3[nH]2)C1 (racemic) [Ex. 6.151]
33 | 42 | 32 | CSc1ccc2nc([C@@H]3CCCN3C(=O)c3cnc(C)nc3-c3ccc(Cl)c(Cl)c3)[nH]c2c1 [Ex. 1.49]
34 | 39 | 215 | C=C1C[C@@H](c2nc3ccc(Cl)c(C)c3[nH]2)N(C(=O)c2cc(C(F)(F)F)ccc2-n2nccn2)C1 [Ex. 6.129]
35 | 37 | 23 | Cc1ccc(-c2cccc(C#N)c2)c(C(=O)N2CCC[C@@]2(C)c2nc3cc(C(F)(F)F)c(Cl)cc3[nH]2)c1 [Ex. 5.159]
36 | 32 | 9 | C[C@@]1(c2nc3cc(C(F)(F)F)ccc3[nH]2)CCCN1C(=O)c1cc(-c2cccnc2)ccc1-c1ccccc1 [Ex. 5.265]
37 | 21 | 10 | Cc1ccc(-c2ccccc2F)c(C(=O)N2CCC[C@@]2(C)c2nc3c(C)c(C)ccc3[nH]2)c1 [Ex. 5.114]
38 | 20 | 14 | CSc1cccc2nc([C@@H]3CCCN3C(=O)c3cncnc3-c3ccc(Br)c(Cl)c3)[nH]c12 [Ex. 1.84]
39 | 19 | 16 | CO[C@H]1CN(C(=O)c2ccccc2-n2nccn2)C(C)(c2nc3c(C)c(Cl)ccc3[nH]2)C1 (stereo partly shown) [Ex. 3.45]
40 | 13 | 10 | CO[C@H]1CN(C(=O)c2cc(F)ccc2-n2nccn2)C(C)(c2nc3c(C)c(Cl)ccc3[nH]2)C1 (stereo partly shown) [Ex. 3.43]
41 | 8 | 5 | Cc1nc(C(=O)N2C[C@H](F)C[C@H]2c2nc3c(C)c(Cl)ccc3[nH]2)c(-c2cccc(Cl)c2)s1 [Ex. 2.10]
42 | 7 | 21 | C=C1C[C@@H](c2nc3cc(OC)ccc3[nH]2)N(C(=O)c2nc(C)sc2-c2cccc(Cl)c2)C1 [Ex. 6.8]
43 | 6 | 143 | C=C1C[C@@H](c2nc3cc(C)c(C)cc3[nH]2)N(C(=O)c2c(C)cccc2-n2nccn2)C1 [Ex. 6.199]
44 | 3 | 34 | C=C1C[C@@H](c2nc3cc(Cl)c(C)cc3[nH]2)N(C(=O)c2cc(C)ccc2-n2nccn2)C1 [Ex. 6.65]
45 | 3 | 40 | CSc1ccc2nc([C@@H]3CCCN3C(=O)c3ccc(C)cc3-n3nccn3)[nH]c2c1 [Ex. 1.153]
46 | 2 | 6 | C=C1C[C@@H](c2nc3cc(C)c(C)cc3[nH]2)N(C(=O)c2cc(C)c(C)cc2-n2nccn2)C1 [Ex. 6.197]
47 | 2 | 9 | Cc1nc(C(=O)N2CCC[C@@]2(C)c2nc3c(C)cccc3n2C)c(-c2cccc(Cl)c2)s1 [Ex. 7.5]
48 | 1 | 13 | COc1ccc(-n2nccn2)c(C(=O)N2C[C@H](OC)C[C@H]2c2nc3ccc(Cl)c(C)c3[nH]2)c1 [Ex. 3.12]
49 | 0.9 | 10 | C=C1C[C@@H](c2nc3cccc(C)c3[nH]2)N(C(=O)c2nc(C)sc2-c2cccc(C)c2)C1 [Ex. 6.101]
50 | 0.8 | 3 | C=C1C[C@@H](c2nc3ccc(Cl)c(C)c3[nH]2)N(C(=O)c2nc(C)sc2-c2ccc(Cl)c(Cl)c2)C1 [Ex. 6.126]
